In patent US12162858B2, “Quinoline derivatives as inhibitors of AXL/MER RTK and CSF1R” (QURIENT CO., LTD., priority 2018, dated 2024):
pIC50, pKd: −log10 of the molar value.

Legend:
Axl = biological target: T1, Axl (Homo sapiens, UniProt P30530); assay: LanthaScreen Eu kinase binding assay for Axl; conditions: read-out: Axl kinase binding activity (Kd)
T1 sequence (P30530 26-894): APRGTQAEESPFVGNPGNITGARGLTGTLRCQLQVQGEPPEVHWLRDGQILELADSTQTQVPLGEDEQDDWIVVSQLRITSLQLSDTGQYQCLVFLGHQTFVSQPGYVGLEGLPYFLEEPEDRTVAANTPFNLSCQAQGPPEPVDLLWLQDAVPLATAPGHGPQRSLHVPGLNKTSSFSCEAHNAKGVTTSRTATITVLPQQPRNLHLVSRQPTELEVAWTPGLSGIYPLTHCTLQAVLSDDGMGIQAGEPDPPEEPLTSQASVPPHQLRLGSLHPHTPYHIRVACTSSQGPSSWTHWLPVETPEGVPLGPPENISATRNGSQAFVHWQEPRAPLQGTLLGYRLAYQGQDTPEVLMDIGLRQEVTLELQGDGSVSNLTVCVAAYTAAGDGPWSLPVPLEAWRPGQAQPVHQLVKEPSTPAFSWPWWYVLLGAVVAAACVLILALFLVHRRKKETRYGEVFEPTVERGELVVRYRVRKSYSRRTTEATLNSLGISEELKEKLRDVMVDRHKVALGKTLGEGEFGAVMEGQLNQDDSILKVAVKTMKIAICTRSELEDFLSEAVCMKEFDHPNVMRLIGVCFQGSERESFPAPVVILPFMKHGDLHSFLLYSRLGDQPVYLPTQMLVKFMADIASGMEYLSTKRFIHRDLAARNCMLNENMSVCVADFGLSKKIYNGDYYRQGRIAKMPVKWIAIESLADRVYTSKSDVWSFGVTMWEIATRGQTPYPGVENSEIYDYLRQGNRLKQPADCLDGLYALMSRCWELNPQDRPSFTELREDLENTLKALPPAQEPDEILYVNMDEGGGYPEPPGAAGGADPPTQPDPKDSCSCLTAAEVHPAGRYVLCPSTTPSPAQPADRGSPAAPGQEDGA
Summary of the method: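 Competitive displacement of Alexa Fluor 647-labeled Tracer 236 from the kinase, with binding detected by TR-FRET with a Eu-labeled anti-GST antibody. Compounds were run as 8-step DMSO serial dilutions and incubated 1 h at room temperature. Kd was calculated relative to DMSO vehicle control wells.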

CSF1R (M-NFS-60 cells) = assay: Cell Titer-Glo viability assay using M-NFS-60 cells; format: cell-based; conditions: Mus musculus, read-out: Cellular CSF1R activity by M-NFS-60 viability assay (IC50 activity range)
Summary of the method: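 M-NFS-60 cells grown with 62 ng/ml recombinant human M-CSF, seeded at 2×10^5 cells/well and incubated at 37 °C/5% CO2. Compounds given as 3-fold serial dilutions (10 doses); viability read by CellTiter-Glo luminescence, sigmoidal dose-response fit.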

Structure (SMILES)	pKd (Axl)	pIC50 (CSF1R (M-NFS-60 cells))
CCn1nc(C(=O)Nc2ccc(Oc3ccnc4cc(OC)c(OC)cc34)cn2)c(OCC(F)(F)F)c1C [Compound 1]	> 7.00	> 6.00
COc1cc2nccc(Oc3ccc(NC(=O)c4nn(C(C)C)c(C)c4OCC(F)(F)F)nc3)c2cc1OC [Compound 2]	> 7.00	> 6.00
COc1cc2nccc(Oc3ccc(NC(=O)c4nn(C5CC5)c(C(C)=O)c4OCC(F)(F)F)nc3)c2cc1OC [Compound 3]	> 7.00	≤ 5.00
COc1cc2nccc(Oc3ccc(NC(=O)c4nn(C5CCOC5)cc4OCC(F)(F)F)nc3)c2cc1OC (stereo not drawn) [Compound 13]	> 7.00	> 6.00
CCCn1cc(OCCF)c(C(=O)Nc2ccc(Oc3ccnc4cc(OC)c(OC)cc34)cn2)n1 [Compound 14]	> 7.00	> 6.00
CCCn1cc(OCCC(O)CO)c(C(=O)Nc2ccc(Oc3ccnc4cc(OC)c(OC)cc34)cn2)n1 (stereo not drawn) [Compound 15]	> 7.00	5.00 to 6.00
COc1cc2nccc(Oc3ccc(NC(=O)c4nn(CC(C)O)cc4OCC(F)(F)F)nc3)c2cc1OC (stereo not drawn) [Compound 17]	> 7.00	> 6.00
COc1cc2nccc(Oc3ccc(NC(=O)c4nn(CCCO)cc4OCC(F)(F)F)nc3)c2cc1OC [Compound 18]	> 7.00	> 6.00
COc1cc2nccc(Oc3ccc(NC(=O)c4nn(CC(C)=O)cc4OCC(F)(F)F)nc3)c2cc1OC [Compound 19]	> 7.00	> 6.00
CCC(=O)n1cc(OCC(F)(F)F)c(C(=O)Nc2ccc(Oc3ccnc4cc(OC)c(OC)cc34)cn2)n1 [Compound 20]	> 7.00	> 6.00
COc1cc2nccc(Oc3ccc(NC(=O)c4nn(CC(C)C)cc4OCC(F)(F)F)nc3)c2cc1OC [Compound 21]	> 7.00	> 6.00
COc1cc2nccc(Oc3ccc(NC(=O)c4nn(C(C)(C)C)cc4OCC(F)(F)F)nc3)c2cc1OC [Compound 22]	> 7.00	> 6.00
CCCn1cc(NCC(F)(F)F)c(C(=O)Nc2ccc(Oc3ccnc4cc(OC)c(OC)cc34)cn2)n1 [Compound 23]	> 7.00	> 6.00
COc1cc2nccc(Oc3ccc(NC(=O)c4nn(C5CCC5)cc4OCC(F)(F)F)nc3)c2cc1OC [Compound 24]	> 7.00	> 6.00
CCCn1cc(OCC(F)(F)F)c(C(=O)Nc2ccc(Oc3ccnc4cc(OC)c(OC)cc34)c(F)c2)n1 [Compound 25]	> 7.00	5.00 to 6.00
CCCn1cc(OCC(F)(F)F)c(C(=O)Nc2ccc(Oc3ccnc4cc(OC)c(OC)cc34)c(C)c2)n1 [Compound 26]	> 7.00	5.00 to 6.00
CCCn1cc(OCC(F)(F)F)c(C(=O)Nc2ccc(Oc3ccnc4cc(OC)c(OC)cc34)cc2C)n1 [Compound 27]	> 7.00	5.00 to 6.00
CCCn1cc(OCC(F)(F)F)c(C(=O)Nc2ccc(Oc3ccnc4cc(OC)c(OC)cc34)cc2F)n1 [Compound 28]	> 7.00	5.00 to 6.00
COc1cc2nccc(Oc3ccc(NC(=O)c4nn(C[C@@H](C)O)cc4OCC(F)(F)F)nc3)c2cc1OC [Compound 29]	> 7.00	> 6.00
COc1cc2nccc(Oc3ccc(NC(=O)c4nn(C[C@H](C)O)cc4OCC(F)(F)F)nc3)c2cc1OC [Compound 30]	> 7.00	> 6.00
CCCn1cc(OCCC(F)(F)F)c(C(=O)Nc2ccc(Oc3ccnc4cc(OC)c(OC)cc34)cn2)n1 [Compound 31]	> 7.00	> 6.00
CCCn1cc(OCC(F)(F)F)c(C(=O)Nc2ccc(Oc3ccnc4cc(OC)c(OC)cc34)nn2)n1 [Compound 32]	> 7.00	5.00 to 6.00
COc1cc2nccc(Oc3ccc(NC(=O)c4nn(C)cc4OCC(F)(F)F)nc3)c2cc1OC [Compound 33]	> 7.00	> 6.00
CCCn1cc(N(C)CC2CCOCC2)c(C(=O)Nc2ccc(Oc3ccnc4cc(OC)c(OC)cc34)cn2)n1 [Compound 34]	≤ 6.30	5.00 to 6.00
CCCn1cc(OC(C)C)c(C(=O)Nc2ccc(Oc3ccnc4cc(OC)c(OC(F)(F)F)cc34)c(F)c2)n1 [Compound 35]	≤ 6.30	5.00 to 6.00
CCCCn1cc(OCC(F)(F)F)c(C(=O)Nc2ccc(Oc3ccnc4cc(OC)c(OC)cc34)cn2)n1 [Compound 36]	> 7.00	> 6.00

Structure (SMILES)	pKd (Axl)	pIC50 (CSF1R (M-NFS-60 cells))
COc1cc2nccc(Oc3ccc(NC(=O)c4nn(C)cc4OCC(F)(F)F)cc3C)c2cc1OC [Compound 37]	6.30 to 7.00	> 6.00
CCCn1cc(OCC(F)(F)F)c(C(=O)Nc2ccc(Oc3ccnc4cc(OC)c(OC)cc34)cc2)n1 [Compound 38]	> 7.00	> 6.00
COc1cc2nccc(Oc3ccc(NC(=O)c4nn(CCC#N)cc4OCC(F)(F)F)nc3)c2cc1OC [Compound 39]	> 7.00	> 6.00
COc1cc2nccc(Oc3ccc(NC(=O)c4nn(C5CCCC5)cc4OCC(F)(F)F)nc3)c2cc1OC [Compound 40]	> 7.00	> 6.00
COc1cc2nccc(Oc3ccc(NC(=O)c4nn(CC5CC5)cc4OCC(F)(F)F)nc3)c2cc1OC [Compound 41]	> 7.00	> 6.00
COc1cc2nccc(Oc3ccc(NC(=O)c4nn(CC5CCC5)cc4OCC(F)(F)F)nc3)c2cc1OC [Compound 42]	> 7.00	> 6.00
COc1cc2nccc(Oc3ccc(NC(=O)c4nn(CC5CCCCC5)cc4OCC(F)(F)F)nc3)c2cc1OC [Compound 43]	> 7.00	> 6.00
COc1cc2nccc(Oc3ccc(NC(=O)c4nn(CC5CCOC5)cc4OCC(F)(F)F)nc3)c2cc1OC (stereo not drawn) [Compound 44]	> 7.00	> 6.00
COc1cc2nccc(Oc3ccc(NC(=O)c4nn(C)cc4OCC(F)(F)F)c(F)c3)c2cc1OC [Compound 45]	> 7.00	5.00 to 6.00
COc1cc2nccc(Oc3ccc(NC(=O)c4nn(CCO)cc4OCC(F)(F)F)c(F)c3)c2cc1OC [Compound 46]	> 7.00	5.00 to 6.00
COc1cc2nccc(Oc3ccc(NC(=O)c4nn(C5CCCC5)cc4OCC(F)(F)F)c(F)c3)c2cc1OC [Compound 47]	> 7.00	> 6.00
COc1cc2nccc(Oc3ccc(NC(=O)c4nn(CC(C)C)cc4OCC(F)(F)F)c(F)c3)c2cc1OC [Compound 48]	> 7.00	> 6.00
COCCn1cc(OCC(F)(F)F)c(C(=O)Nc2ccc(Oc3ccnc4cc(OC)c(OC)cc34)cc2F)n1 [Compound 49]	> 7.00	5.00 to 6.00
COc1cc2nccc(Oc3ccc(NC(=O)c4nn(C)cc4OCC(F)(F)F)cc3F)c2cc1OC [Compound 50]	> 7.00	5.00 to 6.00
COc1cc2nccc(Oc3ccc(NC(=O)c4nn(CCO)cc4OCC(F)(F)F)cc3F)c2cc1OC [Compound 51]	> 7.00	> 6.00
COc1cc2nccc(Oc3ccc(NC(=O)c4nn(C5CCCC5)cc4OCC(F)(F)F)cc3F)c2cc1OC [Compound 52]	> 7.00	> 6.00
COc1cc2nccc(Oc3ccc(NC(=O)c4nn(CC(C)C)cc4OCC(F)(F)F)cc3F)c2cc1OC [Compound 53]	> 7.00	> 6.00
COCCn1cc(OCC(F)(F)F)c(C(=O)Nc2ccc(Oc3ccnc4cc(OC)c(OC)cc34)c(F)c2)n1 [Compound 54]	> 7.00	> 6.00
COc1cc2nccc(Oc3ccc(NC(=O)c4nn(C5CCOC5)cc4OCC(F)(F)F)cc3F)c2cc1OC (stereo not drawn) [Compound 55]	> 7.00	5.00 to 6.00
COc1cc2nccc(Oc3ccc(NC(=O)c4nn(CCO)cc4OCC(F)(F)F)cc3C)c2cc1OC [Compound 56]	6.30 to 7.00	> 6.00
COc1cc2nccc(Oc3ccc(NC(=O)c4nn(C5CCCC5)cc4OCC(F)(F)F)cc3C)c2cc1OC [Compound 57]	> 7.00	> 6.00
COc1cc2nccc(Oc3ccc(NC(=O)c4nn(CC(C)C)cc4OCC(F)(F)F)cc3C)c2cc1OC [Compound 58]	> 7.00	5.00 to 6.00
COc1cc2nccc(Oc3ccc(NC(=O)c4nn(CCO)cc4OCC(F)(F)F)cc3)c2cc1OC [Compound 59]	> 7.00	> 6.00
COc1cc2nccc(Oc3ccc(NC(=O)c4nn(C5CCCC5)cc4OCC(F)(F)F)cc3)c2cc1OC [Compound 60]	> 7.00	5.00 to 6.00
COCCn1cc(OCC(F)(F)F)c(C(=O)Nc2ccc(Oc3ccnc4cc(OC)c(OC)cc34)cc2)n1 [Compound 61]	> 7.00	5.00 to 6.00
